Read-outs that look alike come from different tables or passages of the source.
How the values were obtained:
[1] = target: T1, PRC2/EZH2Y641N (Homo sapiens, UniProt Q15910, Y641N); assay: Kinetic probe competition assay (kPCA), TR-FRET; assay type: binding; details: EZH2Y641N (- H3K27me3); sheet ePCA&kPCA RT
T1 construct: Synthetic cDNA encoding N-terminal 6His-tagged full length EZH2^Y641N; 6His (N); made in house; host or cells: Sf9 insect cells (baculovirus co-infection)
Excerpt: (§1) Biotinylated PRC2 complexes and the fluorescent probe used in TR-FRET assays were generated as described in the supplementary methods section.

[2] = in vitro; assay type: in vitro ADME; details: human, Caco-2, pH 7.2
[3] = system: KARPAS-422 cells; assay: Cellular proliferation assay (AlamarBlue, 144 h); assay type: cell-based; details: Homo sapiens, KARPAS-422, 144 h, read-out: KARPAS (6-day) Anti-proliferation IC50 (M)
Procedure: Cell viability was determined by means of the AlamarBlue® reagent (Thermo Fisher Scientific) following instructions from the manufacturer. […] Anti-proliferative IC50s were calculated by fitting the normalized AlamarBlue® fluorescence values to a 4-parameter logistic equation using the Electronic Notebook (ELN) software from IDBS.

[4] = target: T1, PRC2/EZH2Y641N; assay: Equilibrium probe competition assay (ePCA), TR-FRET; assay type: binding
[5] = target: T2, PRC2/EZH2+/+ (Homo sapiens, UniProt Q15910); assay: Kinetic probe competition assay (kPCA), TR-FRET; assay type: binding
T2 construct: purchased Active Motif
Procedure: as §1
For measurements at 25, 30 and 37 °C, the temperature control functionality of the instrument was used.
TR-FRET kPCA traces were exported via Microsoft Excel to GraphPad Prism, where non-specific signals were subtracted and kinetic association competition traces were fitted to the Motulsky–Mahan model “kinetics of competitive binding” to obtain kon (k3), koff (k4) and KD parameters.

Structure (SMILES): Cc1cc(C)c(CN2CCc3c(Cl)cc(-c4c(C)noc4C)c(Cl)c3C2=O)c(=O)[nH]1 [Compound 14]
- Kd [1]: 2.83 nM
- koff [1]: 0.00136 s⁻¹
- kon [1]: 496000 M⁻¹ s⁻¹
- Papp A→B at 2 h, 2 µM ([2]; 2 µM, 2 h, 37 °C, apical to basolateral, read-out: PK Caco-2 Flux Papp A-B (mean)): 15.4 ×10⁻⁶ cm/s
- Papp B→A at 2 h, 2 µM ([2]; 2 µM, 2 h, 37 °C, basolateral to apical, read-out: PK Caco-2 Flux Papp B-A (mean)): 17.4 ×10⁻⁶ cm/s
- efflux ratio at 2 h, 2 µM ([2]; Papp B-A divided by Papp A-B, read-out: PK Caco-2 Flux Efflux Ratio (mean)): 1.13
- IC50 [3]: 6.4e-07 M
- Ligand Efficiency ([4]; EZH2Y641N (+ H3K27me3)): 1.6
- Ki ([4]; EZH2Y641N (+ H3K27me3), equilibrium, RT sheet): 1.35 nM
- Ligand Efficiency ([4]; EZH2Y641N (- H3K27me3)): 1.5
- Ki ([4]; EZH2Y641N (- H3K27me3), sheet ePCA&kPCA RT): 2.99 nM
- Kinetic Efficiency ([5]; EZH2+/+ (+ H3K27me3)): 3.61E-02
- Calculated RT ([5]; EZH2+/+ (+ H3K27me3)): 0.29 h
- Kd ([5]; EZH2+/+ (+ H3K27me3), sheet ePCA&kPCA RT, read-out: Kinetic Kd): 0.303 nM
- koff ([5]; EZH2+/+ (+ H3K27me3), sheet ePCA&kPCA RT, read-out: Kinetic koff): 0.000323 s⁻¹
- kon ([5]; EZH2+/+ (+ H3K27me3), sheet ePCA&kPCA RT, read-out: Kinetic kon): 1.06e+06 M⁻¹ s⁻¹
- Kinetic Efficiency ([5]; EZH2+/+ (- H3K27me3)): 2.67E-02
- RT (Calculated) ([5]; EZH2+/+ (- H3K27me3), 5 °C): 2.28 h
- koff ([5]; EZH2+/+ (- H3K27me3), 5 °C, read-out: koff (Kinetic)): 0.000251 s⁻¹
- koff ([5]; EZH2+/+ (- H3K27me3), 5 °C, read-out: koff calc (Calculated)): 0.000122 s⁻¹
- kon ([5]; EZH2+/+ (- H3K27me3), 5 °C, read-out: kon (Kinetic)): 111000 M⁻¹ s⁻¹
- RT (Calculated) ([5]; EZH2+/+ (- H3K27me3), 15 °C): 0.613 h
- Kd ([5]; EZH2+/+ (- H3K27me3), 15 °C, read-out: Kd (Kinetic)): 0.378 nM
- koff ([5]; EZH2+/+ (- H3K27me3), 15 °C, read-out: koff (Kinetic)): 0.000211 s⁻¹
- kon ([5]; EZH2+/+ (- H3K27me3), 15 °C, read-out: kon (Kinetic)): 559000 M⁻¹ s⁻¹
- RT (Calculated) ([5]; EZH2+/+ (- H3K27me3), 30 °C): 0.244 h
- Kd ([5]; EZH2+/+ (- H3K27me3), 30 °C, read-out: Kd (Kinetic)): 5.24 nM
- koff ([5]; EZH2+/+ (- H3K27me3), 30 °C, read-out: koff (Kinetic)): 0.00307 s⁻¹
- koff ([5]; EZH2+/+ (- H3K27me3), 30 °C, read-out: koff calc (Calculated)): 0.00114 s⁻¹
- kon ([5]; EZH2+/+ (- H3K27me3), 30 °C, read-out: kon (Kinetic)): 582000 M⁻¹ s⁻¹
- RT (Calculated) ([5]; EZH2+/+ (- H3K27me3), 37 °C): 0.14 h
- Kd ([5]; EZH2+/+ (- H3K27me3), 37 °C, read-out: Kd (Kinetic)): 2.4 nM
- koff ([5]; EZH2+/+ (- H3K27me3), 37 °C, read-out: koff (Kinetic)): 0.00199 s⁻¹
- koff ([5]; EZH2+/+ (- H3K27me3), 37 °C, read-out: koff calc (Calculated)): 0.00194 s⁻¹
- kon ([5]; EZH2+/+ (- H3K27me3), 37 °C, read-out: kon (Kinetic)): 845000 M⁻¹ s⁻¹
- Calculated RT ([5]; EZH2+/+ (- H3K27me3)): 0.21 h
- Kd ([5]; EZH2+/+ (- H3K27me3), sheet ePCA&kPCA RT, read-out: Kinetic Kd): 2.27 nM
- koff ([5]; EZH2+/+ (- H3K27me3), sheet ePCA&kPCA RT, read-out: Kinetic koff): 0.00201 s⁻¹
- kon ([5]; EZH2+/+ (- H3K27me3), sheet ePCA&kPCA RT, read-out: Kinetic kon): 883000 M⁻¹ s⁻¹

— paper PMC10799085, “A miniaturized mode-of-action profiling platform enables high throughput characterization of the molecular and cellular dynamics of EZH2 inhibition” (Scientific Reports, 2024)
